Experimental data published in patent US6355799B1, “Substituted benzene compounds, process for their preparation, and herbicidal and defoliant compositions containing them” (ISK Americas Incorporated, priority 1997, dated 2002).

Key:
Format in all cases: in vivo
[1] = test system: velvetleaf (Abutilon theophrasti, ABUTH); assay: Pre-emerge test, greenhouse herbicide activity screening; conditions: rated 14 days after application, 0 = no damage, 100 = complete death
Procedure, shortened: (§1)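 Plants grown in 10 cm pots of sandy loam mix received acetone-dissolved compounds through a moving flat-fan nozzle. Doses ranged from 15 to 1000 g ai/ha. Pre-emerge pots were seeded one day earlier, post-emerge pots 8–21 days earlier. Fourteen days on, each pot was graded 0–100 for damage.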

[2] = test system: large crabgrass (Digitaria sanguinalis, DIGSA); assay: as above; conditions: rated 14 days after application, 0 = no damage, 100 = complete death
Procedure, shortened: as §1

[3] = test system: green foxtail (Setaria viridis, SETVI); assay: as above; conditions: rated 14 days after application, 0 = no damage, 100 = complete death
Procedure, shortened: as §1

[4] = test system: barnyardgrass (Echinochloa crus-galli, ECHCG); assay: as above; conditions: rated 14 days after application, 0 = no damage, 100 = complete death
Procedure, shortened: as §1

[5] = test system: johnsongrass (Sorghum halepense, SORHA); assay: as above; conditions: rated 14 days after application, 0 = no damage, 100 = complete death
Procedure, shortened: as §1

[6] = test system: lambsquarters (Chenopodium album, CHEAL); assay: as above; conditions: rated 14 days after application, 0 = no damage, 100 = complete death
Procedure, shortened: as §1

[7] = test system: ivyleaf morningglory (Ipomoea hederacea, IPOHE); assay: as above; conditions: rated 14 days after application, 0 = no damage, 100 = complete death
Procedure, shortened: as §1

[8] = test system: sicklepod (Cassia obtusifolia, CASOB); assay: as above; conditions: rated 14 days after application, 0 = no damage, 100 = complete death
Procedure, shortened: as §1

[9] = test system: common ragweed (Ambrosia artemisizfolia L., AMBEL); assay: as above; conditions: rated 14 days after application, 0 = no damage, 100 = complete death
Procedure, shortened: as §1

[10] = test system: velvetleaf (Abutilon theophrasti, ABUTH); assay: Post-emerge test, greenhouse herbicide activity screening; conditions: post-emerge, 14 days after application, rating scale 0-100
Procedure, shortened: (§2)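 Fourteen days after spraying, crop and weed injury was graded visually from 0, no effect, to 100, every plant dead. Test substances were dissolved in acetone and applied at 15–1000 g ai/ha with a flat-fan nozzle. Application was either pre-emergence, one day after sowing, or post-emergence at the 2–3 leaf stage.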

[11] = test system: redroot pigweed (Amaranthus retroflexus, AMARE); assay: as above; conditions: post-emerge, 14 days after application, rating scale 0-100
Procedure, shortened: as §2

[12] = test system: large crabgrass (Digitaria sanguinalis, DIGSA); assay: as above; conditions: post-emerge, 14 days after application, rating scale 0-100
Procedure, shortened: as §2

[13] = test system: green foxtail (Setaria viridis, SETVI); assay: as above; conditions: post-emerge, 14 days after application, rating scale 0-100
Procedure, shortened: as §2

[14] = test system: barnyardgrass (Echinochloa crus-galli, ECHCG); assay: as above; conditions: post-emerge, 14 days after application, rating scale 0-100
Procedure, shortened: as §2

[15] = test system: johnsongrass (Sorghum halepense, SORHA); assay: as above; conditions: post-emerge, 14 days after application, rating scale 0-100
Procedure, shortened: as §2

[16] = test system: lambsquarters (Chenopodium album, CHEAL); assay: as above; conditions: post-emerge, 14 days after application, rating scale 0-100
Procedure, shortened: as §2

[17] = test system: ivyleaf morningglory (Ipomoea hederacea, IPOHE); assay: as above; conditions: post-emerge, 14 days after application, rating scale 0-100
Procedure, shortened: as §2

[18] = test system: sicklepod (Cassia obtusifolia, CASOB); assay: as above; conditions: post-emerge, 14 days after application, rating scale 0-100
Procedure, shortened: as §2

[19] = test system: common ragweed (Ambrosia artemisizfolia L., AMBEL); assay: as above; conditions: post-emerge, 14 days after application, rating scale 0-100
Procedure, shortened: as §2

[20] = test system: field corn (Zea mays L., var. Dekalb 535, CORN); assay: Pre-emerge test, crop safety; conditions: rated 14 days after application, 0 = no damage, 100 = complete death
Procedure, shortened: (§3)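 Sandy loam pots; pre-emerge: sown 1 d pre-spray, surface-watered after, then bottom-watered. Post-emerge: sown 8–21 d before, 2–3 leaf stage, + 0.25% v/v NIS, bottom-watered. Acetone, 187 l/ha track spray, 15–1000 g ai/ha. 0–100 injury score, day 14.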

[21] = test system: upland rice (Oryza sp., var. Tebonnet, RICE); assay: Pre-emerge test, crop safety; conditions: rated 14 days after application, 0 = no damage, 100 = complete death
Procedure, shortened: as §3

[22] = test system: field corn (Zea mays L., var. Dekalb 535, CORN); assay: Post-emerge test, crop safety; conditions: post-emerge, 14 days after application, rating scale 0-100
Procedure, shortened: (§4)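 Each test used a mechanized track sprayer delivering 187 l/ha of acetone solution at 15–1000 g ai/ha. Post-emerge foliage at 2–3 leaves was treated with added 0.25% v/v non-ionic surfactant and bottom-watered only. Injury was assessed on day 14, where 100 means total kill.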

[23] = test system: upland rice (Oryza sp., var. Tebonnet, RICE); assay: Post-emerge test, crop safety; conditions: post-emerge, 14 days after application, rating scale 0-100
Procedure, shortened: as §4

[24] = test system: redroot pigweed (Amaranthus retroflexus, AMARE); assay: Pre-emerge test, greenhouse herbicide activity screening; conditions: rated 14 days after application, 0 = no damage, 100 = complete death
Procedure, shortened: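 Compounds in acetone were track-sprayed at 187 l/ha, 15–1000 g ai/ha, onto sandy loam pots. Pre-emerge seeds were sown one day before spraying, with surface watering afterwards. Post-emerge plants were at the 2–3 leaf stage and sprayed with 0.25% v/v non-ionic surfactant. Injury was rated 0–100 at 14 days.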

COc1c(Cl)cc(F)c(-n2c(=O)cc(C(F)(F)F)n(C)c2=O)c1NC(=O)c1cccc(F)c1F [2-41]
Pre-emerge Herbicidal Activity, phytotoxicity rating (0-100), ABUTH ([1]; 63 g ai/ha): 100 | Pre-emerge Herbicidal Activity, phytotoxicity rating (0-100), ABUTH ([1]; 250 g ai/ha): 100 | Pre-emerge Herbicidal Activity, phytotoxicity rating (0-100), DIGSA ([2]; 63 g ai/ha): 70 | Pre-emerge Herbicidal Activity, phytotoxicity rating (0-100), DIGSA ([2]; 250 g ai/ha): 100 | Pre-emerge Herbicidal Activity, phytotoxicity rating (0-100), SETVI ([3]; 63 g ai/ha): 95 | Pre-emerge Herbicidal Activity, phytotoxicity rating (0-100), SETVI ([3]; 250 g ai/ha): 100 | Pre-emerge Herbicidal Activity, phytotoxicity rating (0-100), ECHCG ([4]; 63 g ai/ha): 50 | Pre-emerge Herbicidal Activity, phytotoxicity rating (0-100), ECHCG ([4]; 250 g ai/ha): 100 | Pre-emerge Herbicidal Activity, phytotoxicity rating (0-100), SORHA ([5]; 63 g ai/ha): 30 | Pre-emerge Herbicidal Activity, phytotoxicity rating (0-100), SORHA ([5]; 250 g ai/ha): 100 | Pre-emerge Herbicidal Activity, phytotoxicity rating (0-100), CHEAL ([6]; 63 g ai/ha): 100 | Pre-emerge Herbicidal Activity, phytotoxicity rating (0-100), CHEAL ([6]; 250 g ai/ha): 100 | Pre-emerge Herbicidal Activity, phytotoxicity rating (0-100), IPOHE ([7]; 63 g ai/ha): 90 | Pre-emerge Herbicidal Activity, phytotoxicity rating (0-100), IPOHE ([7]; 250 g ai/ha): 100 | Pre-emerge Herbicidal Activity, phytotoxicity rating (0-100), CASOB ([8]; 63 g ai/ha): 80 | Pre-emerge Herbicidal Activity, phytotoxicity rating (0-100), CASOB ([8]; 250 g ai/ha): 100 | Pre-emerge Herbicidal Activity, phytotoxicity rating (0-100), AMBEL ([9]; 63 g ai/ha): 100 | Pre-emerge Herbicidal Activity, phytotoxicity rating (0-100), AMBEL ([9]; 250 g ai/ha): 100 | phytotoxicity rating ABUTH ([10]; 63 g ai/ha): 100 | phytotoxicity rating ABUTH ([10]; 250 g ai/ha): 100 | phytotoxicity rating AMARE ([11]; 63 g ai/ha): 95 | phytotoxicity rating AMARE ([11]; 250 g ai/ha): 100 | phytotoxicity rating DIGSA ([12]; 63 g ai/ha): 0 | phytotoxicity rating DIGSA ([12]; 250 g ai/ha): 20 | phytotoxicity rating SETVI ([13]; 63 g ai/ha): 20 | phytotoxicity rating SETVI ([13]; 250 g ai/ha): 30 | phytotoxicity rating ECHCG ([14]; 63 g ai/ha): 0 | phytotoxicity rating ECHCG ([14]; 250 g ai/ha): 30 | phytotoxicity rating SORHA ([15]; 63 g ai/ha): 0 | phytotoxicity rating SORHA ([15]; 250 g ai/ha): 70 | phytotoxicity rating CHEAL ([16]; 63 g ai/ha): 95 | phytotoxicity rating CHEAL ([16]; 250 g ai/ha): 100 | phytotoxicity rating IPOHE ([17]; 63 g ai/ha): 100 | phytotoxicity rating IPOHE ([17]; 250 g ai/ha): 100 | phytotoxicity rating CASOB ([18]; 63 g ai/ha): 60 | phytotoxicity rating CASOB ([18]; 250 g ai/ha): 95 | phytotoxicity rating AMBEL ([19]; 63 g ai/ha): 50 | phytotoxicity rating AMBEL ([19]; 250 g ai/ha): 95 | Pre-emerge phytotoxicity rating (0-100), crop damage, CORN ([20]; 63 g ai/ha): 35 | Pre-emerge phytotoxicity rating (0-100), crop damage, CORN ([20]; 250 g ai/ha): 95 | Pre-emerge phytotoxicity rating (0-100), crop damage, RICE ([21]; 63 g ai/ha): 50 | Pre-emerge phytotoxicity rating (0-100), crop damage, RICE ([21]; 250 g ai/ha): 90 | phytotoxicity rating CORN ([22]; 63 g ai/ha): 15 | phytotoxicity rating CORN ([22]; 250 g ai/ha): 80 | phytotoxicity rating RICE ([23]; 63 g ai/ha): 10 | phytotoxicity rating RICE ([23]; 250 g ai/ha): 70 | Pre-emerge Herbicidal Activity, phytotoxicity rating (0-100), AMARE ([24]; 63 g ai/ha): 100 | Pre-emerge Herbicidal Activity, phytotoxicity rating (0-100), AMARE ([24]; 250 g ai/ha): 100
